In publication PMC11372076, “A dual inhibitor of PIP5K1C and PIKfyve prevents SARS-CoV-2 entry into cells” (Experimental & Molecular Medicine, 2024):

Key:
Vero cells = assay: Endosomal pH change test with acridine orange; assay type: cell-based; conditions: 1 µM for 1 h
Procedure: This image-based experiment was performed according to our previous report with some modifications. Vero cells were cultured in a glass bottom 35 mm dish (6 × 10^4 cells per well) overnight. Each compound, including 1 µM UNC3230, apilimod or UNI418, was added to Vero cells for 1 h at 37 °C. The cells were stained with acridine orange (Sigma‒Aldrich, A9231) at a final concentration of 4 µg/mL for 30 min. After washing with PBS twice, images were acquired using a confocal microscope (Zeiss LSM 700, Baden-Württemberg, Germany) at two emission wavelengths, 493 to 560 nm and 590 to 720 nm, with excitation at 488 nm. The green-to-red ratio or vacuole size was measured using the built-in software ZEN 3.1.
Fig. 3 UNI418 negatively affects autophagosome-lysosome fusion and endosome acidification. a Live-cell imaging of HEK293T cells stably expressing mCherry-GFP-LC3 treated with 0.5 μM UNI418 at the indicated time points; the images within the white rectangular boxes are magnified on the right side. Scale bar, 30 µm. The number (b) and area (c) of GFP-positive dots per cell were quantified by ImageXpress. d Immunofluorescence images illustrating the inhibition of endolysosomal acidification by UNI418. Vero cells were treated with the mock control or 1 µM UNC3230, apilimod or UNI418 for 1 h at 37 °C. Acridine orange (4 µg/mL) was added to the compound-treated live cells, followed by additional incubation for 30 min. The cells were analyzed by confocal microscopy using two emission wavelengths at 493–560 (green) and 590–720 nm (red) after excitation at 488 nm. Merged images are presented, and images within the white rectangular boxes are magnified on the right side. Original magnification, 630×. The green-to-red fluorescence intensity ratio (e) and the area of fluorescent spots (f) were quantified. b, c, e, f The data are presented as the means ± SEMs, with a minimum of 200 spots. Statistical significance was determined by Student’s t test; *p < 0.05, **p < 0.01, ***p < 0.001 and ****p < 0.0001. n.s., not significant.

in vitro = conditions: African green monkey
[1] = test system: Wuhan-Hu-1 spike-pseudotyped virus; assay: microbe, parasite or virus in culture; assay type: cell-based, SARS-CoV-2
PIKFYVE = PIKFYVE (Homo sapiens, UniProt Q9Y2I7); assay: SelectScreen Kinase Profiling Service (PIPK profiling); assay type: biochemical; conditions: [ATP] 100 μM; 1 μM (concentration stated for UNI418 only)
Text: UNI418 has a core structure consisting of 4-quinazolinamine (Fig. 1a, green), which is often found in kinase inhibitors. […] The phosphoinositide (PI) system is a crucial regulatory mechanism in membrane trafficking and is tightly regulated through phosphorylation cascades by multiple phosphatidylinositol phosphate kinases (PIPKs)[30]. We hypothesized that UNI418 may inhibit PIPK(s) and performed PIPK profiling analysis. […] To test whether UNI418 interacts with PIP5K1C and PIKfyve, we performed a CETSA, which determines the characteristics of protein stabilization upon ligand binding to the target protein[31]. UNI418- or DMSO-treated cell lysates were incubated at different temperatures, and the presence of the target protein in the soluble fraction was analyzed by Western blotting (Fig. 1c).
Fig. 1 UNI418 specifically targets PIP5K1 and PIKfyve. a Chemical structure of UNI418. The 4-quinazolinamine core is highlighted in green. b Table of the kinase profiling analysis. Inhibition of several kinases was determined at a 1 μM concentration of UNI418 and analyzed by the SelectScreen Kinase Profiling Service (Thermo Fisher Scientific). c Cellular thermal shift assay. Ectopically expressed GFP-PIP5K1C and GFP-PIKfyve were heated to the indicated temperatures with/without UNI418, and the presence of protein in the soluble fraction was analyzed by Western blot analysis. TEXT PRINTED IN THE PICTURE: (b) UNI418: % Inhibition (mean): 11 ([ATP] Tested (μM): 10; Kinase Tested: PI4K2A (PI4K2 alpha)); % Inhibition (mean): 4 ([ATP] Tested (μM): 10; Kinase Tested: PI4K2B (PI4K2 beta)); % Inhibition (mean): -6 ([ATP] Tested (μM): 10; Kinase Tested: PI4KA (PI4K alpha)); % Inhibition (mean): 48 ([ATP] Tested (μM): Km app; Kinase Tested: PI4KB (PI4K beta)); % Inhibition (mean): 20 ([ATP] Tested (μM): 10; Kinase Tested: PIK3C2B (PI3K-C2 beta)); % Inhibition (mean): 22 ([ATP] Tested (μM): 10; Kinase Tested: PIK3C2G (PI3K-C2 gamma)); % Inhibition (mean): 4 ([ATP] Tested (μM): 100; Kinase Tested: PIK3C3 (hVPS34)); % Inhibition (mean): 8 ([ATP] Tested (μM): 10; Kinase Tested: PIK3CA/PIK3R3 (p110 alpha/p55 gamma)); % Inhibition (mean): 7 ([ATP] Tested (μM): 10; Kinase Tested: PIK3CB/PIK3R2 (p110 beta/p85 beta)); % Inhibition (mean): 9 ([ATP] Tested (μM): 10; Kinase Tested: PIP4K2A); % Inhibition (mean): 67 ([ATP] Tested (μM): 10; Kinase Tested: PIP5K1A); % Inhibition (mean): 93 ([ATP] Tested (μM): 10; Kinase Tested: PIP5K1B); % Inhibition (mean): 93 ([ATP] Tested (μM): 10; Kinase Tested: PIP5K1C); % Inhibition (mean): 100 ([ATP] Tested (μM): 100; Kinase Tested: PIKFYVE) | (b) Apilimod: % Inhibition (mean): 100 ([ATP] Tested (μM): 100; Kinase Tested: PIKFYVE) […]

SARS-CoV-2 = assay type: cell-based

Chain of PIKFYVE (Q9Y2I7 whole entry): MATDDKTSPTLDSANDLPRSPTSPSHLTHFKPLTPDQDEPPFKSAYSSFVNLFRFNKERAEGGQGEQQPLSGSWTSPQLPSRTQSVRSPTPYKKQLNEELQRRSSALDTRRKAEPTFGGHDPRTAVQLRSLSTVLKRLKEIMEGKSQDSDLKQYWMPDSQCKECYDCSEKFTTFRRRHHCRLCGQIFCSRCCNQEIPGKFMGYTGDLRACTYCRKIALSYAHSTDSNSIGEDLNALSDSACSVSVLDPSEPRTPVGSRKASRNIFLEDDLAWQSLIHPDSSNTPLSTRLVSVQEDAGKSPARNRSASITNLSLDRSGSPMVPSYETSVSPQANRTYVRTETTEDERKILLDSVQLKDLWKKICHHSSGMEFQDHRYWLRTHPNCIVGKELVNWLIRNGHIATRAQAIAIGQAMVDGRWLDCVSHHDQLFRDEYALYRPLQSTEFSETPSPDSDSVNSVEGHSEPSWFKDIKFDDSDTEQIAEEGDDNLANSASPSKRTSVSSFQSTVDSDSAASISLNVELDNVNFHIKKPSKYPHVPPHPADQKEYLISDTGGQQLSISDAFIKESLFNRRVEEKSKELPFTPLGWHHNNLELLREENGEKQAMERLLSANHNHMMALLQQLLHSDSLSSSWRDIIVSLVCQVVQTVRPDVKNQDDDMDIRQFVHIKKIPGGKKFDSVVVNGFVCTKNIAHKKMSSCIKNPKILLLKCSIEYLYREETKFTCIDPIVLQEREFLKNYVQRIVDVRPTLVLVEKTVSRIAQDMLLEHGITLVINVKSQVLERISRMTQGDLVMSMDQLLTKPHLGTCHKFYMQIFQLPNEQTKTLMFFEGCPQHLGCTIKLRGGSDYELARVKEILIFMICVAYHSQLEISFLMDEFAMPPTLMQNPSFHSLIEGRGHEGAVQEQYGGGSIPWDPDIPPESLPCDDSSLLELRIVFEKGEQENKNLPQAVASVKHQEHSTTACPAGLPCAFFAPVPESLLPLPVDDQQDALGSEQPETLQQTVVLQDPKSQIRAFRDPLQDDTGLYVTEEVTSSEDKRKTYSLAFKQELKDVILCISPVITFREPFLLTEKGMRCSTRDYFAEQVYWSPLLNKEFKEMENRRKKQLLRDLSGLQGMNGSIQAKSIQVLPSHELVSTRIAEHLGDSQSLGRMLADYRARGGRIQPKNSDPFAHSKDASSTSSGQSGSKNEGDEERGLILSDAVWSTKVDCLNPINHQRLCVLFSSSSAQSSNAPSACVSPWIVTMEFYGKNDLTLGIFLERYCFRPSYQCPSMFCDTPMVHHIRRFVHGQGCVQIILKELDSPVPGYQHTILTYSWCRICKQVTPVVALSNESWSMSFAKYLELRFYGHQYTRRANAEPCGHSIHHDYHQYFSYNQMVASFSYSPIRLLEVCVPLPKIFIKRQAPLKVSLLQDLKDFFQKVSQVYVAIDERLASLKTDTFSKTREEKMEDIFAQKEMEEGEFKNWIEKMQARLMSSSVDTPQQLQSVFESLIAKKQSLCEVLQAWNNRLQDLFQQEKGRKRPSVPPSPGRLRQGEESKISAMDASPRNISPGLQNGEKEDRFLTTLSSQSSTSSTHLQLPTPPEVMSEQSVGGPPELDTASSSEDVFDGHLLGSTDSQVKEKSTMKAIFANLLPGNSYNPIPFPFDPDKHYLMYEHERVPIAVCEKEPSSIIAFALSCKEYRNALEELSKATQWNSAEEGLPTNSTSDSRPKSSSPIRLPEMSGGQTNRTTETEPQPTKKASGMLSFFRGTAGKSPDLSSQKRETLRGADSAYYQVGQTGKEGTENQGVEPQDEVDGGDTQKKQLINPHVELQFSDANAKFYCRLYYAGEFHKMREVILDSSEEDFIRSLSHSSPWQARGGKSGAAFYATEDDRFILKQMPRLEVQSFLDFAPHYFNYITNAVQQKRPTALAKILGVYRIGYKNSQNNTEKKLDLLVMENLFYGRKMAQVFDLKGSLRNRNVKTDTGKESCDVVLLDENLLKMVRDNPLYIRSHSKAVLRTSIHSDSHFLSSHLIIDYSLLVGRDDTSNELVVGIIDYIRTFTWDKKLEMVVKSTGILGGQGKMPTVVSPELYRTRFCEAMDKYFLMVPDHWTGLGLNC

Structure (SMILES)	green-to-red ratio of fluorescent spots relative to mock-treated sample (Vero cells)	CC50 (in vitro)	pseudotyped virus entry [1]	inhibition at 1 µM (PIKFYVE)	reduction in the levels of the viral NP gene (viral genome copies) (SARS-CoV-2)	IC50 ([1]; Severe acute respiratory syndrome coronavirus 2, 293T/ACE2, read-out: concentration that inhibited spike-mediated viral entry by 50% compared to maximal inhibition)
c1ccc(-c2cc(Nc3nc(-c4ccncc4)nc4ccccc34)n[nH]2)cc1 [UNI418, N -(5-phenyl-1 H -pyrazol-3-yl)-2-(4-pyridinyl)-4-quinazolinamine]	6.3 fold	62.3 µM	markedly inhibited	100%	approximately 2 log	–
Cc1cccc(/C=N/Nc2cc(N3CCOCC3)nc(OCCc3ccccn3)n2)c1 [apilimod]	2.2 fold	73.6 µM	–	100%	approximately 2 log	0.005 µM
